The test system of the test is P388 leukemia ip, CD2F1 mice, survival T/C. Put plainly: NCI In Vivo Anticancer Drug Screen. Data for tumor model P388 Leukemia (intraperitoneal) in CD2F1 (CDF1) mice. Conditions: endpoint: median survival time, higher = longer survival. An outline of the steps: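 Mice carrying the transplanted tumor received test compound or vehicle. Survival was recorded in each group, and the value is the treated-group measurement divided by that of the vehicle-treated control group.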

[1] abbreviates: dose: 50.0 mg/kg/injection, schedule: Q01DX005 (ip), vehicle: Klucel (hydroxypropylcellulose) (HPC).
The mark [2] stands for this setting: dose: 100.0 mg/kg/injection, schedule: Q01DX005 (ip), vehicle: Klucel (hydroxypropylcellulose) (HPC).
Setting [3] is: dose: 50.0 mg/kg/injection, schedule: Q01DX005 (ip), vehicle: saline with Tween-80.
The mark [4] stands for this setting: dose: 100.0 mg/kg/injection, schedule: Q01DX005 (ip), vehicle: saline with Tween-80.
[5] abbreviates: dose: 200.0 mg/kg/injection, schedule: Q01DX005 (ip), vehicle: saline with Tween-80.
Where [6] appears, read: dose: 50.0 mg/kg/injection, schedule: Q01DX009 (ip), vehicle: saline with Tween-80.
Where [7] appears, read: dose: 100.0 mg/kg/injection, schedule: Q01DX009 (ip), vehicle: saline with Tween-80.
[8] abbreviates: dose: 12.5 mg/kg/injection, schedule: Q01DX009 (ip), vehicle: saline with Tween-80.
Setting [9] is: dose: 25.0 mg/kg/injection, schedule: Q01DX009 (ip), vehicle: saline with Tween-80.
The mark [10] stands for this setting: dose: 50.0 mg/kg/injection, schedule: Q01DX005 (ip), vehicle: saline.
Where [11] appears, read: dose: 100.0 mg/kg/injection, schedule: Q01DX005 (ip), vehicle: saline.
Setting [12] is: dose: 200.0 mg/kg/injection, schedule: Q01DX005 (ip), vehicle: saline.
Where [13] appears, read: dose: 50.0 mg/kg/injection, schedule: Q01DX009 (ip), vehicle: saline.
The mark [14] stands for this setting: dose: 100.0 mg/kg/injection, schedule: Q01DX001 (ip), vehicle: Klucel (hydroxypropylcellulose) (HPC).
[15] abbreviates: dose: 200.0 mg/kg/injection, schedule: Q01DX001 (ip), vehicle: Klucel (hydroxypropylcellulose) (HPC).
Setting [16] is: dose: 400.0 mg/kg/injection, schedule: Q01DX001 (ip), vehicle: Klucel (hydroxypropylcellulose) (HPC).
[17] abbreviates: dose: 60.0 mg/kg/injection, schedule: Q01DX005 (ip), vehicle: Klucel (hydroxypropylcellulose) (HPC).
Where [18] appears, read: dose: 120.0 mg/kg/injection, schedule: Q01DX005 (ip), vehicle: Klucel (hydroxypropylcellulose) (HPC).
Setting [19] is: dose: 240.0 mg/kg/injection, schedule: Q01DX005 (ip), vehicle: Klucel (hydroxypropylcellulose) (HPC).

Where “and” joins values, the source holds several entries; their conditions need not be identical. Identical values can stand only once. Inconclusive results and toxic doses are left out.

Turning to `COC(=O)C12CC(CCC1C13CC=CC(C)(C)C1C(=O)OC3)C(C)C2=O` (centres undefined), the T/C (dose: 100.0 mg/kg/injection, schedule: Q04DX002 (ip), vehicle: saline with Tween-80) was 92 % of control; the T/C (dose: 200.0 mg/kg/injection, schedule: Q04DX002 (ip), vehicle: saline with Tween-80) is 95 % of control; the T/C (dose: 400.0 mg/kg/injection, schedule: Q04DX002 (ip), vehicle: saline with Tween-80) was 103 % of control.
For the molecule `CCCCN(CCCC)c1nsc(N2CCCCC2)n1`, the T/C by setting is: (dose: 45.0 mg/kg/injection, schedule: Q01DX009 (ip), vehicle: saline with Tween-80) 113 % of control; (dose: 90.0 mg/kg/injection, schedule: Q01DX009 (ip), vehicle: saline with Tween-80) 117 % of control; (dose: 180.0 mg/kg/injection, schedule: Q01DX009 (ip), vehicle: saline with Tween-80) 118 % of control.
Take `COc1ccccc1NC(=O)CC(=O)N1N=C(C)C(N=Nc2cccc(C(=O)O)c2)C1=O` (centres undefined): the T/C (dose: 60.0 mg/kg/injection, schedule: Q01DX005 (ip), vehicle: saline with Tween-80) was 98 % of control and the T/C (dose: 120.0 mg/kg/injection, schedule: Q01DX005 (ip), vehicle: saline with Tween-80) is 98 % of control.
As for `COC(=O)C1C2c3ccccc3C(C1C(=O)OC)[n+]1ccccc12` (centres undefined), the T/C reads like this: (dose: 25.0 mg/kg/injection, schedule: Q01DX005 (ip), vehicle: Klucel (hydroxypropylcellulose) (HPC)) 94 % of control; under setting [1], 94 % of control; under setting [2], 100 % of control.
For the molecule `O=C(O)C(=Cc1c2ccccc2cc2ccccc12)C(=O)O`, the T/C under setting [3] is 95 % of control, the T/C under setting [4] was 99 % of control and the T/C under setting [5] was 114 % of control.
Turning to `CCCCCCCCCCC(O)C(=O)O` (centres undefined), the T/C under setting [6] was 95 % of control and the T/C under setting [7] is 89 % of control.
In the case of `CCCCCC1c2cc(O)ccc2OC1N1CCOCC1` (centres undefined), the T/C under setting [8] was 105 % of control; the T/C under setting [9] was 101 % of control; the T/C under setting [6] is 113 % of control and 120 % of control; the T/C under setting [7] is 119 % of control and 124 % of control.
Take `CCCNCC(=O)Nc1ccccc1NC(=O)CNCCC`: the T/C is 100 % of control under setting [10], 102 % of control under setting [11] and 100 % of control under setting [12].
Consider `Cc1ccc(CN2CCN(Cc3ccc(C)o3)C(C)C2)o1` (centres undefined), for which the T/C is 101 % of control under setting [10], 101 % of control under setting [11] and 100 % of control under setting [12].
On to `OC1CC2CCc3[nH]c4ccccc4c3CCN(C1)C2` (centres undefined), for which the T/C runs as follows: (dose: 5.5 mg/kg/injection, schedule: Q01DX005 (ip), vehicle: Klucel (hydroxypropylcellulose) (HPC)) 91 % of control; (dose: 11.0 mg/kg/injection, schedule: Q01DX005 (ip), vehicle: Klucel (hydroxypropylcellulose) (HPC)) 96 % of control; (dose: 22.0 mg/kg/injection, schedule: Q01DX005 (ip), vehicle: Klucel (hydroxypropylcellulose) (HPC)) 100 % of control; (dose: 44.0 mg/kg/injection, schedule: Q01DX005 (ip), vehicle: Klucel (hydroxypropylcellulose) (HPC)) 100 % of control.
`COc1ccc(CC2=NCCc3cc(OC)c(OC)cc32)cc1OC`: the T/C runs as follows: (dose: 22.0 mg/kg/injection, schedule: Q01DX009 (ip), vehicle: saline) 104 % of control; (dose: 33.0 mg/kg/injection, schedule: Q01DX009 (ip), vehicle: saline) 103 % of control; under setting [13], 103 % of control; (dose: 75.0 mg/kg/injection, schedule: Q01DX009 (ip), vehicle: saline) 102 % of control.
In the case of `CC(C)(C)N1OC1c1ccccc1` (centres undefined), the T/C runs as follows: (dose: 25.0 mg/kg/injection, schedule: Q04DX003 (ip), vehicle: saline with Tween-80) 108 % of control; (dose: 50.0 mg/kg/injection, schedule: Q04DX003 (ip), vehicle: saline with Tween-80) 105 % of control; (dose: 100.0 mg/kg/injection, schedule: Q04DX003 (ip), vehicle: saline with Tween-80) 108 % of control; (dose: 200.0 mg/kg/injection, schedule: Q04DX003 (ip), vehicle: saline with Tween-80) 108 % of control.
In the case of `CC1C=CCC(C)(C#N)C1` (centres undefined), the T/C by setting is: (dose: 50.0 mg/kg/injection, schedule: Q01DX009 (ip), vehicle: Klucel (hydroxypropylcellulose) (HPC)) 103 % of control; (dose: 100.0 mg/kg/injection, schedule: Q01DX009 (ip), vehicle: Klucel (hydroxypropylcellulose) (HPC)) 100 % of control; (dose: 200.0 mg/kg/injection, schedule: Q01DX009 (ip), vehicle: Klucel (hydroxypropylcellulose) (HPC)) 108 % of control.
On to `O/N=C/c1c(-c2ccccc2)nc2sccn12`, for which the T/C is 94 % of control under setting [14], 86 % of control under setting [15] and 94 % of control under setting [16].
On to `COc1cccc(OC(=O)c2ccc(OC)c(C3=CC(=O)C=CC3=O)c2)c1`, for which the T/C was 94 % of control under setting [14], 93 % of control under setting [15] and 89 % of control under setting [16].
Consider `c1ccc2c3ccc(c2c1)CCc1ccc(c2ccccc12)CC3`, for which the T/C runs as follows: (dose: 100.0 mg/kg/injection, schedule: Q04DX003 (ip), vehicle: other) 96 % of control; (dose: 200.0 mg/kg/injection, schedule: Q04DX003 (ip), vehicle: other) 90 % of control.
On to `COc1cc2c(cc1OC)C(Cc1cc(Br)sc1Br)N(C(C)=O)CC2` (centres undefined), for which the T/C is, setting by setting: under setting [14], 101 % of control; under setting [15], 101 % of control; under setting [16], 113 % of control.
Regarding `COCCn1nc(-c2ccc(Cl)cc2)c(-c2ccc(Cl)cc2)c(C(C)=O)c1=O`, the T/C was 100 % of control under setting [3], 100 % of control under setting [4] and 93 % of control under setting [5].
With `CCCCCCCC(=O)Nc1nnc(SCCCCCCCCCCCCSc2nnc(NC(=O)CCCCCCC)s2)s1`, the T/C reads like this: under setting [1], 90 % of control; under setting [2], 89 % of control; (dose: 200.0 mg/kg/injection, schedule: Q01DX005 (ip), vehicle: Klucel (hydroxypropylcellulose) (HPC)) 86 % of control.
As for `O=c1nc(N2CCCC2)oc2cc3ccccc3cc12`, the T/C under setting [17] was 95 % of control, the T/C under setting [18] is 98 % of control and the T/C under setting [19] was 95 % of control.
On to `CCN(CC)C(=Nc1ccc(Cl)c(Cl)c1)SC(NC=O)=C(Cl)Cl`, for which the T/C was 100 % of control under setting [17], 104 % of control under setting [18] and 104 % of control under setting [19].
For `O=[N+]([O-])c1cc2ccccc2c(O)c1O`, the T/C reads like this: under setting [8], 95 % of control; under setting [9], 104 % of control; under setting [6], 118 % of control.
For the molecule `Cc1ccc(C(=O)NC2C(=O)NC(C(C)C)C(=O)N3CCCC3C(=O)N(C)CC(=O)N(C)C(C(C)C)C(=O)OC2C)c2c1Oc1c(c(C(=O)NC3C(=O)NC(C(C)C)C(=O)N4CCCC4C(=O)N(C)CC(=O)N(C)C(C(C)C)C(=O)OC3C)c3nc(-c4ccccc4)c(=O)oc3c1C)N2` (centres undefined), the T/C was 168 % of control (dose: 0.13 mg/kg/injection, schedule: Q01DX005 (ip), vehicle: water); 181 % of control and 240 % of control (dose: 0.25 mg/kg/injection, schedule: Q01DX005 (ip), vehicle: water); 246 % of control (dose: 1.0 mg/kg/injection, schedule: Q01DX005 (ip), vehicle: water).
For the molecule `C[Si]1(C)N[Si](C)(C)N[Si](C)(C)N1`, the T/C runs as follows: under setting [6], 103 % of control; under setting [7], 95 % of control; (dose: 200.0 mg/kg/injection, schedule: Q01DX009 (ip), vehicle: saline with Tween-80) 108 % of control.
As to `O=P1(Nc2ccc(Cl)cc2)N(Cc2ccc(Cl)cc2)CCCN1Cc1ccc(Cl)cc1`, the T/C under setting [3] is 93 % of control, the T/C under setting [4] was 92 % of control and the T/C under setting [5] was 98 % of control.
In the case of `CC1N=C(SCC(=O)c2ccc(Cl)cc2)N2C(C)N=C(SCC(=O)c3ccc(Cl)cc3)N12` (centres undefined), the T/C was 98 % of control under setting [13]; 90 % of control (dose: 100.0 mg/kg/injection, schedule: Q01DX009 (ip), vehicle: saline); 90 % of control (dose: 200.0 mg/kg/injection, schedule: Q01DX009 (ip), vehicle: saline).

Values taken from PubChem BioAssay AID330 (DTP/NCI, 2004).
